# Target: T1, human cGAS (residues 161-522) (Homo sapiens, UniProt Q8N884)
# T1 construct: human cGAS (residues 161-522); made in house
# Assay: cGAS Activity Assay—Malachite Green
# Type: biochemical
# Settings: recombinant purified human cGAS 25 nM; 80 μM ATP, 80 μM GTP, 100 nM ISD; 4 hour at RT; phosphate detection by Malachite Green
# Method in brief: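 Human cGAS (161-522, 25 nM) in 20 mM TRIS pH 7.5, 5 mM MgCl2, 0.01% BSA with 80 μM ATP, 80 μM GTP and 100 nM ISD DNA, 4 h at RT. Pyrophosphate converted by PPase, phosphate read with Malachite Green at 620 nm; IC50 from 4-parameter fit of 16-point series.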
# T1 sequence (Q8N884 161-522): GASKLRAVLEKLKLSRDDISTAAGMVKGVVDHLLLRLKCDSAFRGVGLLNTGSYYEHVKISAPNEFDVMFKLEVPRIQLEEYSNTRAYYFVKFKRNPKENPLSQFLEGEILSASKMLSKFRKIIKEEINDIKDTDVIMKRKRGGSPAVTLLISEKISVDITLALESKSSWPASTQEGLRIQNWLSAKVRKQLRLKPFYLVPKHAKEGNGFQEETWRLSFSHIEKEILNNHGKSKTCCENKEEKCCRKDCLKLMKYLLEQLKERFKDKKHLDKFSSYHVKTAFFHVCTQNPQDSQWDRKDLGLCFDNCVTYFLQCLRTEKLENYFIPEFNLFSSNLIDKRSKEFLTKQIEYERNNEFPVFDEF
row,SMILES,IC50
1,"Cc1cc(NC(=O)/C(C#N)=C(\O)c2cnoc2C)ccc1Br [Example 23, (Z)-N-(4-bromo-3-methylphenyl)-2-cyano-3-hydroxy-3-(5-methylisoxazol-4-yl)acrylamide]",1810 nM
2,"Cc1oncc1/C(O)=C(\C#N)C(=O)Nc1ccc(S(=O)(=O)N2CCCC2)cc1 [Example 27, (Z)-2-cyano-3-hydroxy-3-(5-methylisoxazol-4-yl)-N-(4-(pyrrolidin-1-ylsulfonyl)phenyl) acrylamide]",150 nM
3,"Cc1oncc1/C(O)=C(\C#N)C(=O)Nc1ccc(S(=O)(=O)Nc2ccc(C#N)cc2)cc1 [Example 57, (Z)-2-cyano-N-(4-(N-(4-cyanophenyl)sulfamoyl)phenyl)-3-hydroxy-3-(5-methylisoxazol-4-yl)acrylamide]",290 nM
4,"COC(=O)c1ccc(NC(=O)/C(C#N)=C(\O)c2cnoc2C)cc1 [Example 8, methyl (Z)-4-(2-cyano-3-hydroxy-3-(5-methylisoxazol-4-yl)acrylamido)benzoate]",340 nM
5,"COCCS(=O)(=O)c1cnc(NC(=O)/C(C#N)=C(\O)c2cnoc2C)nc1 [Example 110, (Z)-2-cyano-3-hydroxy-N-(5-((2-methoxyethyl)sulfonyl)pyrimidin-2-yl)-3-(5-methylisoxazol-4-yl)acrylamide]",60 nM
6,"Cc1oncc1/C(O)=C(\C#N)C(=O)Nc1ccc(C#N)cc1 [Example 7, (Z)-2-cyano-N-(4-cyanophenyl)-3-hydroxy-3-(5-methylisoxazol-4-yl)acrylamide]",790 nM
7,"CCOc1ccc(NC(=O)/C(C#N)=C(\O)c2cnoc2C)cc1 [Example 28, (Z)-2-cyano-N-(4-ethoxyphenyl)-3-hydroxy-3-(5-methylisoxazol-4-yl)prop-2-enamide]",750 nM
8,Cc1oncc1/C(O)=C(\C#N)C(=O)Nc1ncc(C(F)(F)F)cc1F [Example 92],250 nM
9,"Cc1oncc1/C(O)=C(\C#N)C(=O)Nc1ccc(C(F)(F)F)cc1 [Example 4, (Z)-2-cyano-3-hydroxy-3-(5-methylisoxazol-4-yl)-N-(4-(trifluoromethyl)phenyl) acrylamide]",950 nM
10,"COCCOc1cnc(NC(=O)/C(C#N)=C(\O)c2cnoc2C)nc1-c1ccccc1 [Example 126, (Z)-2-cyano-3-hydroxy-N-(5-(2-methoxyethoxy)-4-phenylpyrimidin-2-yl)-3-(5-methylisoxazol-4-yl)acrylamide]",420 nM
11,"Cc1oncc1/C(O)=C(\C#N)C(=O)Nc1ccc(C(=O)NCc2ccccc2)cc1 [Example 72, (Z)-N-benzyl-4-(2-cyano-3-hydroxy-3-(5-methylisoxazol-4-yl)acrylamido)benzamide]",680 nM
12,"Cc1oncc1/C(O)=C(\C#N)C(=O)Nc1cccc(NC(=O)c2ccccc2)c1 [Example 71, (Z)-N-(3-(2-cyano-3-hydroxy-3-(5-methylisoxazol-4-yl)acrylamido)phenyl) benzamide]",1340 nM
13,"Cc1oncc1/C(O)=C(\C#N)C(=O)Nc1ncc(Sc2ccccc2)cn1 [Example 97, (Z)-2-cyano-3-hydroxy-3-(5-methylisoxazol-4-yl)-N-(5-phenylsulfanylpyrimidin-2-yl)prop-2-enamide]",210 nM
14,"COCCN(C)S(=O)(=O)c1cnc(NC(=O)/C(C#N)=C(\O)c2cnoc2C)nc1 [Example 117, (Z)-2-Cyano-3-hydroxy-N-(5-(N-(2-methoxyethyl)-N-methylsulfamoyl)pyrimidin-2-yl)-3-(5-methylisoxazol-4-yl)acrylamide]",50 nM
15,"COc1cnc(NC(=O)/C(C#N)=C(\O)c2cnoc2C)nc1-c1ccccc1 [Example 124, (Z)-2-cyano-3-hydroxy-N-(5-methoxy-4-phenylpyrimidin-2-yl)-3-(5-methylisoxazol-4-yl)acrylamide]",170 nM
16,"COc1ccc(NC(=O)/C(C#N)=C(\O)c2cnoc2C)cc1C [Example 31, (Z)-2-cyano-3-hydroxy-N-(4-methoxy-3-methyl-phenyl)-3-(5-methylisoxazol-4-yl)prop-2-enamide]",1300 nM
17,"Cc1oncc1/C(O)=C(\C#N)C(=O)Nc1ncc(CC2CCCCC2)cn1 [Example 88, (Z)-2-cyano-N-(5-(cyclohexylmethyl)pyrimidin-2-yl)-3-hydroxy-3-(5-methylisoxazol-4-yl)acrylamide]",160 nM
18,"Cc1oncc1/C(O)=C(\C#N)C(=O)Nc1nccc(CCc2ccccc2)n1 [Example 87, (Z)-2-cyano-3-hydroxy-3-(5-methylisoxazol-4-yl)-N-(4-phenethylpyrimidin-2-yl)acrylamide]",240 nM
19,"Cc1oncc1/C(O)=C(\C#N)C(=O)Nc1ncc(OCC2CCCC2)cn1 [Example 85, (Z)-2-cyano-N-(5-(cyclopentylmethoxy)pyrimidin-2-yl)-3-hydroxy-3-(5-methylisoxazol-4-yl)acrylamide]",160 nM
20,"COCCN(C)S(=O)(=O)c1ccc(NC(=O)/C(C#N)=C(\O)c2cnoc2C)cc1 [Example 119, (Z)-2-Cyano-3-hydroxy-N-(4-(N-(2-methoxyethyl)-N-methylsulfamoyl)phenyl)-3-(5-methylisoxazol-4-yl)acrylamide]",170 nM

row,SMILES,IC50
1,"N#C/C(C(=O)Nc1ccc(C(F)(F)F)cc1)=C(/O)c1cnoc1 [Example 142, (Z)-2-cyano-3-hydroxy-3-(isoxazol-4-yl)-N-(4-(trifluoromethyl)phenyl)acrylamide]",5190 nM
2,"Cc1oncc1/C(O)=C(\C#N)C(=O)Nc1ccc(S(=O)(=O)Nc2ccccc2)cc1 [Example 54, (Z)-2-cyano-3-hydroxy-3-(5-methylisoxazol-4-yl)-N-(4-(N-phenylsulfamoyl)phenyl) acrylamide]",220 nM
3,"COCCOc1cnc(NC(=O)/C(C#N)=C(\O)c2cnoc2C)nc1CCc1ccccc1 [Example 128, (Z)-2-cyano-3-hydroxy-N-(5-(2-methoxyethoxy)-4-phenethylpyrimidin-2-yl)-3-(5-methylisoxazol-4-yl)acrylamide]",370 nM
4,"Cc1oncc1/C(O)=C(\C#N)C(=O)Nc1ccc(S(C)(=O)=O)cc1Cl [Example 61, (Z)-N-(2-chloro-4-methylsulfonyl-phenyl)-2-cyano-3-hydroxy-3-(5-methylisoxazol-4-yl)prop-2-enamide]",110 nM
5,"Cc1oncc1/C(O)=C(\C#N)C(=O)Nc1ncc(OC2CCCCC2)cn1 [Example 73, (Z)-2-cyano-N-(5-(cyclohexyloxy)pyrimidin-2-yl)-3-hydroxy-3-(5-methylisoxazol-4-yl)acrylamide]",140 nM
6,"Cc1oncc1/C(O)=C(\C#N)C(=O)Nc1ccc(C(F)(F)F)c(C#N)c1 [Example 78, (Z)-2-cyano-N-(3-cyano-4-(trifluoromethyl)phenyl)-3-hydroxy-3-(5-methylisoxazol-4-yl)acrylamide]",1640 nM
7,"Cc1oncc1/C(O)=C(\C#N)C(=O)Nc1cc(C(F)(F)F)cc(C(F)(F)F)c1 [Example 6, (Z)-N-(3,5-bis(trifluoromethyl)phenyl)-2-cyano-3-hydroxy-3-(5-methylisoxazol-4-yl)acrylamide]",6980 nM
8,"Cc1oncc1/C(O)=C(\C#N)C(=O)Nc1ccc(C(=O)N(C)C)cc1 [Example 35, 4-[[(Z)-2-cyano-3-hydroxy-3-(5-methylisoxazol-4-yl)prop-2-enoyl]amino]-N,N-dimethyl-benzamide]",710 nM
9,"Cc1oncc1/C(O)=C(\C#N)C(=O)Nc1ncc(C(=O)NCc2ccccc2)cn1 [Example 106, N-benzyl-2-[[(Z)-2-cyano-3-hydroxy-3-(5-methylisoxazol-4-yl)prop-2-enoyl]amino]pyrimidine-5-carboxamide]",50 nM
10,"Cc1oncc1/C(O)=C(\C#N)C(=O)Nc1ncc(Br)cn1 [Example 107, (Z)-N-(5-bromopyrimidin-2-yl)-2-cyano-3-hydroxy-3-(5-methylisoxazol-4-yl)acrylamide]",60 nM
11,"Cc1oncc1/C(O)=C(\C#N)C(=O)Nc1cccc(S(=O)(=O)c2ccccc2)c1 [Example 49, (Z)-2-cyano-3-hydroxy-3-(5-methylisoxazol-4-yl)-N-(3-(phenylsulfonyl)phenyl) acrylamide]",2500 nM
12,"Cc1oncc1/C(O)=C(\C#N)C(=O)Nc1ncc(OCC(F)(F)F)c(-c2ccc(Cl)cc2)n1 [Example 127, (Z)-N-(4-(4-chlorophenyl)-5-(2,2,2-trifluoroethoxy)pyrimidin-2-yl)-2-cyano-3-hydroxy-3-(5-methylisoxazol-4-yl)acrylamide]",2340 nM
13,"Cc1cc(C#N)ccc1NC(=O)/C(C#N)=C(\O)c1cnoc1C [Example 22, (Z)-2-cyano-N-(4-cyano-2-methylphenyl)-3-hydroxy-3-(5-methylisoxazol-4-yl)acrylamide]",690 nM
14,"Cc1oncc1/C(O)=C(\C#N)C(=O)Nc1ccc(S(=O)(=O)c2ccccc2)cn1 [Example 95, (Z)-2-cyano-3-hydroxy-3-(5-methylisoxazol-4-yl)-N-(5-(phenylsulfonyl)pyridin-2-yl)acrylamide]",100 nM
15,"CC(=O)c1ccc(NC(=O)/C(C#N)=C(\O)c2cnoc2C)cc1 [Example 2, (Z)-N-(4-acetylphenyl)-2-cyano-3-hydroxy-3-(5-methylisoxazol-4-yl)prop-2-enamide]",510 nM
16,Cc1noc(C)c1N(C(=O)c1cnoc1C)S(=O)(=O)c1ccc(NC(=O)/C(C#N)=C(\O)c2cnoc2C)cc1 [Example 60],520 nM
17,"Cc1oncc1/C(O)=C(\C#N)C(=O)Nc1ccc([S+]([O-])c2ccccc2)cc1 (stereo not drawn) [Example 34, (Z)-2-cyano-3-hydroxy-3-(5-methylisoxazol-4-yl)-N-(4-(phenylsulfinyl)phenyl) acrylamide]",190 nM
18,"Cc1oncc1/C(O)=C(\C#N)C(=O)Nc1ccc(Oc2ccccc2)cc1 [Example 62, (Z)-2-cyano-3-hydroxy-3-(5-methylisoxazol-4-yl)-N-(4-phenoxyphenyl)acrylamide]",1560 nM
19,"Cc1noc(C)c1NS(=O)(=O)c1ccc(NC(=O)/C(C#N)=C(\O)c2cnoc2C)cc1 [Example 59, (Z)-2-cyano-N-(4-(N-(3,5-dimethylisoxazol-4-yl)sulfamoyl)phenyl)-3-hydroxy-3-(5-methylisoxazol-4-yl)acrylamide]",450 nM
